{"source": "patent US8859491B2", "about": "(priority 2011, dated 2014)", "key": {"GLP-1 receptor [1]": {"target": "T1, GLP-1 receptor (Homo sapiens, UniProt P43220)", "T1 construct": "expressed in transfected cells; host or cells: HEK293", "T1 sequence (P43220 24-463, species assumed)": "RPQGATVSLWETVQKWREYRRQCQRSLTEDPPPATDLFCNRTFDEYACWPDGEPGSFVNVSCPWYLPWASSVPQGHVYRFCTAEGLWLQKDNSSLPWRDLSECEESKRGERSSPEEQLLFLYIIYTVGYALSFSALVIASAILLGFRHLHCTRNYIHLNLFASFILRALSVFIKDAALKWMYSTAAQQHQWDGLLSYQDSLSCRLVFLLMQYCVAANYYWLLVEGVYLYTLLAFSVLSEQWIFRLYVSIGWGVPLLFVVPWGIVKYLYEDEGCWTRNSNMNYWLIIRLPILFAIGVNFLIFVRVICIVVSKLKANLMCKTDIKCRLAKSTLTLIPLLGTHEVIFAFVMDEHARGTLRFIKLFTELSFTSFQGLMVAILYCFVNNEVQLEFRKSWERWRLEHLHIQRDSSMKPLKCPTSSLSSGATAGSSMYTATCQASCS", "assay": "cAMP induction, firefly luciferase reporter assay in HEK293 cells, GLP-1 receptor", "format": "cell-based", "settings": "GLP-1 receptor versus glucagon receptor", "procedure": "The ability of each peptide to induce cAMP was measured in a firefly luciferase-based reporter assay. […] HEK293 cells co-transfected with the receptor and luciferase gene linked to a cAMP responsive element were employed for the bioassay.\nAt the end of the incubation, 100 μL of LucLite luminescence substrate reagent (Perkin Elmer, Wellesley, Mass.) were added to each well. […] All EC50s and IC50s are reported in the following examples in nM, unless indicated otherwise."}, "[2]": {"assay": "Example 16: mice on diabetic diet for 9 months, sc dosing", "format": "in vivo", "settings": "low daily dose, 7 days"}, "[3]": {"assay": "Example 21: mice on diabetic diet, sc daily for one week", "format": "in vivo", "settings": "between days 0 and 7"}, "[4]": {"assay": "Example 17: DIO mice, 40 μg/kg sc daily for one week", "format": "in vivo", "settings": "between days 0 and 7", "procedure": "Diet-induced obesity (DIO) mice (N=8, average initial body weight=65 g) were subcutaneously injected once per day for one week with vehicle or 40 μg/kg one of the following:\nBody weight was measured after 7 days and the change in body weight and the fat mass were determined (FIG. 6a-b). […] The analysis of fat mass (FIG. 6b) was relatively constant with total loss in body weight."}, "GLP-1 receptor [5]": {"target": "T1, GLP-1 receptor", "assay": "GLP-1 Activity (cAMP induction), CRE-luciferase reporter in HEK293 cells", "format": "cell-based", "procedure": "(§1) Luminescence was measured after cell lysis and incubation with luciferin.\nas §1, §1"}, "GLP-1 receptor [6]": {"target": "T1, GLP-1 receptor", "assay": "GLP-1 Binding, [I125]-GLP-1 SPA with receptor membrane extracts"}, "[7]": {"assay": "Example 19: mice, sc daily for one week", "format": "in vivo", "settings": "between days 0 and 7", "procedure": "Mice (N=8, average body weight 55 g) were administered subcutaneous injections once per day for one week with vehicle or one of the following:\nBody weight was measured after 7 days and the change in body weight was determined (FIG. 8a). There was little apparent difference in body weight lowering at these doses for the peptides with and without the estrogen."}, "[8]": {"assay": "Example 20: DIO mice, sc daily", "format": "in vivo", "settings": "7 days", "procedure": "Diet induced obesity mice (DIO) (N=8, average body weight 61 g) were administered subcutaneous injections once per day for one or two weeks with vehicle or 40, 400, 1200, or 4000 μg/kg of one of the following: […]"}, "[9]": {"assay": "Example 27: DIO mice, sc daily for two weeks", "format": "in vivo", "procedure": "Diet induced obesity mice were administered subcutaneous injections once per day for two weeks with vehicle or 40 or 400 μg/kg of one of the following: […]"}, "[10]": {"assay": "Example 29: DIO mice, 400 μg/kg sc daily for seven days", "format": "in vivo"}, "[11]": {"assay": "Example 30: DIO wild type, ERβ KO and ERα KO mice, 400 μg/kg sc daily for two weeks", "format": "in vivo", "protocol": "Diet-induced obesity wild type mice, estrogen receptor beta knock-out (ERβ KO) mice, and estrogen receptor alpha knock-out (ERα KO) mice were administered subcutaneous injections once per day for two weeks with vehicle or 400 μg/kg of one of the following:"}, "[12]": {"assay": "Example 25: ovariectomized C57BI/6 mice, 4000 μg/kg sc daily for 7 days", "format": "in vivo"}, "[13]": {"assay": "Administration of GLP-1 conjugates to mice, model not stated (FIGS. 15, 19)", "format": "in vivo", "settings": "vs GLP-1 agonist alone or GLP-1 agonist/Estrogen(3-ester) conjugate"}, "[14]": {"assay": "Administration of GLP-1 conjugates to ovariectomized mice (FIGS. 13, 14)", "format": "in vivo"}, "glucocorticoid receptor": {"target": "T2, glucocorticoid receptor (Homo sapiens, UniProt P04150)", "T2 construct": "two clones of HeLa cells (ATCC #CCL-2) transfected with murine mammary tumor virus long terminal repeat-driven firefly luciferase; host or cells: HeLa", "T2 sequence (P04150 1-777)": "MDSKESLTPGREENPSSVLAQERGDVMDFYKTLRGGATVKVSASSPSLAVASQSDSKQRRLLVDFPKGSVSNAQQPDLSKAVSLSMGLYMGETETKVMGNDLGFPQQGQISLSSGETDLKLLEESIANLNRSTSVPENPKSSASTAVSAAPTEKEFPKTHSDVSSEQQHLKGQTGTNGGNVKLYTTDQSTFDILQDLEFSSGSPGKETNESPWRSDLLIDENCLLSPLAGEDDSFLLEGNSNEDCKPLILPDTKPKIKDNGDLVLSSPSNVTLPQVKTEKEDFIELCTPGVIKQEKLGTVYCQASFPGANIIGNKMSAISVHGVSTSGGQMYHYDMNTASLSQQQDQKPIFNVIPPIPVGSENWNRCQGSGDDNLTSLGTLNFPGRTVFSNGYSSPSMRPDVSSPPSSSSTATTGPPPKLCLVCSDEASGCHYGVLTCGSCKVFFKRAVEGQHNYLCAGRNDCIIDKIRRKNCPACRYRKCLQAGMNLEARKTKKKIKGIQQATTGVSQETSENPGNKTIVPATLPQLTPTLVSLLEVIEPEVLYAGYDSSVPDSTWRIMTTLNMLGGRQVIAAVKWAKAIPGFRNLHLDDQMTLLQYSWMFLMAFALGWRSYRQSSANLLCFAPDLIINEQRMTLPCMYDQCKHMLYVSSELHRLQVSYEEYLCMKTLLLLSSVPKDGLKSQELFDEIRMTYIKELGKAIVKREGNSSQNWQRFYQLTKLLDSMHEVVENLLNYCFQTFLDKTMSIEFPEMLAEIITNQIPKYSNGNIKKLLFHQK", "assay": "Glucocorticoid receptor luciferase reporter gene assay in HeLa cell clones (MMTV-LTR luciferase)", "format": "cell-based", "settings": "Example 37; two HeLa reporter clones; compared with unconjugated dexamethasone", "procedure": "The activities of the peptide conjugates in Examples 32 and 33 at the glucocorticoid receptor were tested in the luciferase reporter gene assay using two clones of HeLa cells (ATCC #CCL-2) transfected with murine mammary tumor virus long terminal repeat-driven firefly luciferase."}}, "note": "Non-standard residues stand in square brackets, D forms with d. No end group written: not given here. *: point of attachment. β‑estradiol 3‑ether = C[C@]12CC[C@@H]3c4ccc(O*)cc4CC[C@H]3[C@@H]1CC[C@@H]2O; Aib = CC(C)(N)C(=O)O", "data": [{"compound": "SEQ ID NO: 22: glucagon analog generated by substituting the native glutamine at position 3 with glutamic acid", "values": [{"measurement": "selectivity for the GLP-1 receptor", "setting": "GLP-1 receptor [1]", "result": "approximately a tenfold selectivity"}]}, {"compound": "GLP-1(Aib^2E^16C^24(PEG-40 kDa)Cex K^40): GLP-1 analog PEGylated (40 kDa) at Cys24 (H[Aib]EGTFTSDVSSYLEEQAAKEFIC(PEG 40 kDa thioether)WLVKGGPSSGAPPPSK-NH2)", "values": [{"measurement": "cumulative food intake", "setting": "[2]", "result": "consumed the least amount of food"}]}, {"compound": "SEQ ID NO: 1659: GLP-1 based glucagon superfamily peptide conjugated to estradiol or estrone through a hydrolyzable linkage ([dA][Aib][dE]G[dT][dF][dT][dS][dD][dV][dS][dS][dY][dL][dE]G[dQ][dA][dA][dK][dE][dA][dI][dA][dW][dL][dV][dK]GG[dP][dS][dS]G[dA][dP][dP][dP][dS]K-NH2; not fully specified (residue 40))", "values": [{"measurement": "change in blood glucose levels", "setting": "[3]", "result": "greater change in blood glucose levels"}]}, {"compound": "GLP-1(Aib^2E^16Cex K^40)/Estrogen(17-ester): E16 GLP-1 analog conjugated to estrogen by 17-ester (H[Aib]EGTFTSDVSSYLEEQAAKEFIAWLVKGGPSSGAPPPSK-NH2; not fully specified (residue 40))", "values": [{"measurement": "change in blood glucose", "setting": "[4]", "result": "greatest change in blood glucose"}]}, {"compound": "CC[C@H](C)[C@H](NC(=O)[C@H](Cc1ccccc1)NC(=O)[C@H](CCC(=O)O)NC(=O)[C@H](CCCCN)NC(=O)[C@H](C)NC(=O)[C@H](C)NC(=O)[C@H](CCC(N)=O)NC(=O)[C@H](CCC(=O)O)NC(=O)[C@H](CCC(=O)O)NC(=O)[C@H](CC(C)C)NC(=O)[C@H](Cc1ccc(O)cc1)NC(=O)[C@H](CO)NC(=O)[C@H](CO)NC(=O)[C@@H](NC(=O)[C@H](CC(=O)O)NC(=O)[C@H](CO)NC(=O)[C@@H](NC(=O)[C@H](Cc1ccccc1)NC(=O)[C@@H](NC(=O)CNC(=O)[C@H](CCC(=O)O)NC(=O)C(C)(C)NC(=O)[C@@H](N)Cc1c[nH]cn1)[C@@H](C)O)[C@@H](C)O)C(C)C)C(=O)N[C@@H](C)C(=O)N[C@@H](Cc1c[nH]c2ccccc12)C(=O)N[C@@H](CC(C)C)C(=O)N[C@H](C(=O)N[C@@H](CCCCN)C(=O)NCC(=O)NCC(=O)N1CCC[C@H]1C(=O)N[C@@H](CO)C(=O)N[C@@H](CO)C(=O)NCC(=O)N[C@@H](C)C(=O)N1CCC[C@H]1C(=O)N1CCC[C@H]1C(=O)N1CCC[C@H]1C(=O)N[C@@H](CO)C(=O)N[C@@H](CCCCNC(=O)COc1ccc2c(c1)CC[C@@H]1[C@@H]2CC[C@]2(C)[C@@H](O)CC[C@@H]12)C(N)=O)C(C)C", "note": "[GLP-1/Estrogen(3-ether)]", "values": [{"measurement": "EC50", "setting": "GLP-1 receptor [5]", "result": "0.012 ± 0.003", "unit": "nM"}, {"measurement": "IC50", "setting": "GLP-1 receptor [6]", "result": "0.717 ± 0.135", "unit": "nM"}]}, {"compound": "GLP-1(Aib^2E^16Cex K^40)/Estrogen(3-ester): E16 GLP-1 analog conjugated to estrogen by 3-ester (H[Aib]EGTFTSDVSSYLEEQAAKEFIAWLVKGGPSSGAPPPSK-NH2; not fully specified (residue 40))", "values": [{"measurement": "change in blood glucose levels", "setting": "[7]", "result": "greatest change in blood glucose levels"}, {"measurement": "cumulative food intake", "setting": "[8]", "result": "consumed significantly less food than mice that were administered GLP-1 alone"}]}, {"compound": "GLP-1 agonist/Estrogen(3-ether): active, estrogen-stable GLP-1 agonist/Estrogen(3-ether) conjugate (H[Aib]EGTFTSDVSSYLEEQAAKEFIAWLVKGGPSSGAPPPSK(β‑estradiol 3‑ether)-NH2)", "values": [{"measurement": "change in body weight", "setting": "[9]; 40 or 400 μg/kg, after 15 days", "result": "significantly greater decrease in body weight"}, {"measurement": "cumulative food intake", "setting": "[9]; 15 days", "result": "consumed significantly less food"}, {"measurement": "change in body weight", "setting": "[10]; after 7 days", "result": "greatest decrease in body weight"}, {"measurement": "change in blood glucose", "setting": "[10]; over 7 days", "result": "decrease in blood glucose levels over 7 days, with the decrease greater in mice that were administered the conjugate"}, {"measurement": "decrease in body weight", "setting": "[11]; ERα KO mice, two weeks", "result": "~20", "unit": "%"}, {"measurement": "decrease in body weight", "setting": "[11]; ERβ KO mice, two weeks", "result": "~15", "unit": "%"}, {"measurement": "cumulative food intake", "setting": "[11]; knock-out mice", "result": "consumed the least amount of food"}, {"measurement": "decrease in body weight", "setting": "[11]; wild type DIO mice, two week period", "result": "~10", "unit": "%"}, {"measurement": "change in blood glucose", "setting": "[12]; 4000 μg/kg", "result": "decrease in blood glucose levels greater than vehicle"}, {"measurement": "fat mass", "setting": "[12]; 4000 μg/kg", "result": "decrease in fat mass"}, {"measurement": "change in body weight", "setting": "[12]; 4000 μg/kg, after 7 days", "result": "greater decrease in body weight"}, {"measurement": "cumulative food intake", "setting": "[12]; 7 days", "result": "consumed less food"}, {"measurement": "change in body weight", "setting": "[13]; FIG. 15a", "result": "significantly greater decrease"}, {"measurement": "cumulative food intake", "setting": "[13]; FIG. 15b", "result": "significantly less food"}, {"measurement": "fat mass", "setting": "[14]; FIG. 13b", "result": "decrease in fat mass"}, {"measurement": "blood glucose levels", "setting": "[14]; FIG. 13d", "result": "decrease in blood glucose levels greater than vehicle"}, {"measurement": "change in body weight", "setting": "[14]; vs GLP-1 agonist alone and the inactive d-amino acid conjugates, FIG. 13a", "result": "greater decrease"}, {"measurement": "food intake", "setting": "[14]; vs GLP-1 agonist alone and the inactive d-amino acid conjugates, FIG. 13c", "result": "consumed less food"}]}, {"compound": "[Aib2, E16]GLP-1-CEX-Lys40(NHCO—O-DEX)", "values": [{"measurement": "agonist activity at the glucocorticoid receptor", "setting": "glucocorticoid receptor", "result": "retained the greatest amount of activity at the glucocorticoid receptor"}]}]}
